Test results: ChEMBL document CHEMBL4808180, “Identification of 2,2-Dimethylbutanoic Acid (HST5040), a Clinical Development Candidate for the Treatment of Propionic Acidemia and Methylmalonic Acidemia” (J Med Chem, 2021); call rule not given here

What was measured:
[1] = Stability in minipig hepatocytes assessed as unchanged compound at 50 uM measured after 4 hrs; format: ADME, cell-based, Sus scrofa domesticus, Hepatocyte; conditions: pig, read-out: Stabilty
[2] = Oral bioavailability in CD1 mouse at 30 mg/kg; format: ADME, organism-based; conditions: in vivo
[3] = Drug excretion in Sprague-Dawley rat urine at 10 mg/kg, po using radiolabeled compound measured at 1 hr post dose; format: ADME, organism-based; conditions: in vivo
[4] = Reduction of acetyl carnitine in human hepatocytes derived from propionic acidemia patient at 30 uM pretreated for 30 mins followed by 13C-isoleucine addition and measured after 1 hr by MS/MS analysis relative to control; format: functional, Hepatocyte; set-up: scale not given: the % may be the effect or the level left; conditions: time 90 min, 1.5 h
[5] = Tmax in CD1 mouse at 100 mg/kg, po; format: ADME, organism-based; conditions: in vivo
[6] = Reduction of propionyl carnitine in human hepatocytes derived from propionic acidemia patient at 30 uM pretreated for 30 mins followed by 13C-isoleucine addition and measured after 1 hr by MS/MS analysis relative to control; format: functional, Hepatocyte; set-up: scale not given: the % may be the effect or the level left; conditions: time 90 min, 1.5 h
[7] = AUC (0 to infinity) in CD1 mouse at 30 mg/kg, iv; format: ADME, organism-based; set-up: time infinity, route intravenous, dose 30 mg/kg; conditions: in vivo
[8] = Half life in CD1 mouse at 30 mg/kg, po; format: ADME, organism-based; conditions: in vivo
[9] = Solubility in pH 7-buffered water; format: physicochemical
[10] = Drug metabolism in minipig hepatocytes assessed as beta-oxidation by measuring phase1 metabolite formation at 50 uM measured after 4 hrs; format: ADME, cell-based, Sus scrofa domesticus, Hepatocyte; conditions: pig
Cytochrome P450 2B6 = molecular target: T1, Cytochrome P450 2B6 (Homo sapiens, UniProt P20813); assay: Direct inhibition of CYP2B6 in human liver microsomes using bupropion as substrate; format: ADME
T1 sequence (P20813 whole entry): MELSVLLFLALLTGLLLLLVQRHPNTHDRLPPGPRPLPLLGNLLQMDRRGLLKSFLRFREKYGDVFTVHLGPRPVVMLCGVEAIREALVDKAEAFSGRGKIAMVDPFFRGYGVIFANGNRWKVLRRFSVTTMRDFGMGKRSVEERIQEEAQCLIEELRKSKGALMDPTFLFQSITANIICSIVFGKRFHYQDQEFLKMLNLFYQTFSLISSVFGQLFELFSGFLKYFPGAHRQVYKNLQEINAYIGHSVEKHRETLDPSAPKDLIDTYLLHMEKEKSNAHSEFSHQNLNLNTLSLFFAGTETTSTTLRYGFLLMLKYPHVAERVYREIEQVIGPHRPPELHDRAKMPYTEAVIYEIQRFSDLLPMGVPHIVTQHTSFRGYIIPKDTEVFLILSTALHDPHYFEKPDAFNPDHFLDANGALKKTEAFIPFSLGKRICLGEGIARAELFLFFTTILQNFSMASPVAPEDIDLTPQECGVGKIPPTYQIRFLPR

[11] = Stability in human hepatocytes assessed as unchanged compound at 50 uM measured after 4 hrs; format: ADME, cell-based, Hepatocyte; conditions: read-out: Stabilty
[12] = Reduction of propionyl-CoA in human hepatocytes derived from propionic acidemia patient at 100 uM pretreated for 30 mins followed by 13C-isoleucine addition and measured after 1 hr by MS/MS analysis relative to control; format: functional, Hepatocyte; set-up: scale not given: the % may be the effect or the level left; conditions: time 90 min, 1.5 h
[13] = Tmax in Sprague-Dawley rat at 50 mg/kg, po; format: ADME, organism-based; conditions: in vivo
[14] = molecular target: T2, Broad substrate specificity ATP-binding cassette transporter ABCG2 (Homo sapiens, UniProt Q9UNQ0); assay: Inhibition of human BCRP assessed as reduction in E3S transport at 24000 uM relative to control
T2 sequence (Q9UNQ0 whole entry): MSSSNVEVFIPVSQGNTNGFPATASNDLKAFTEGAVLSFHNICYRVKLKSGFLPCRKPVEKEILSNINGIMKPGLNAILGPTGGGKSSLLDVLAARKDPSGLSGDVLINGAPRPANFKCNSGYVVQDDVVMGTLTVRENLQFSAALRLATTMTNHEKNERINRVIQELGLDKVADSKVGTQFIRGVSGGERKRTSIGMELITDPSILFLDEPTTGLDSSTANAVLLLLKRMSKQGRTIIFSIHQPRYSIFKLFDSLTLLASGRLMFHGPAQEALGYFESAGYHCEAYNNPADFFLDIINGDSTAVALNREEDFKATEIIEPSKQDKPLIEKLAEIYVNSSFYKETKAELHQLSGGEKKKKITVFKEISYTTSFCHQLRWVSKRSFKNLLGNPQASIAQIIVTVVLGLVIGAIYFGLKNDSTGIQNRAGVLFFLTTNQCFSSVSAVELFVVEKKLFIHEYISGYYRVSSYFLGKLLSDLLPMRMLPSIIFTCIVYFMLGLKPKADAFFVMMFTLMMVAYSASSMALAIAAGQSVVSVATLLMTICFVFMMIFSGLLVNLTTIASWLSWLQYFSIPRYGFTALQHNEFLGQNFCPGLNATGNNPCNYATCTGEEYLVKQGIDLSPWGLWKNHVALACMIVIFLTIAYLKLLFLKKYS

[15] = Reduction of 2-Methylcitric acid in human hepatocytes derived from methylmalonic acidemia patient pretreated for 30 mins followed by 13C-isoleucine addition and measured after 1 hr by MS/MS analysis; format: functional, cell-based; conditions: hepatocyte
[16] = Reduction of CoASH in human hepatocytes at 30 uM pretreated for 30 mins followed by 13C-isoleucine addition and measured after 1 hr by MS/MS analysis relative to control; format: functional, Hepatocyte; set-up: scale not given: the % may be the effect or the level left; conditions: time 90 min, 1.5 h
[17] = Reduction of propionyl-CoA in human hepatocytes derived from methylmalonic acidemia at 30 uM pretreated for 30 mins followed by 13C-isoleucine addition and measured after 1 hr by MS/MS analysis relative to control; format: functional, Hepatocyte; set-up: scale not given: the % may be the effect or the level left; conditions: time 90 min, 1.5 h
[18] = Drug metabolism in human hepatocytes assessed as formation of 2,2-dimethylbutanoic acid-CoA pretreated for 30 mins followed by 13C-isoleucine addition and measured after 1 hr by MS/MS analysis relative to control; format: ADME, cell-based; conditions: Hepatocyte
[19] = Drug metabolism in Sprague-Dawley rat urine assessed as HST5040-glucuronide metabolite formation at 10 mg/kg administered as single dose by LC/MS analysis; format: ADME, organism-based; conditions: in vivo
[20] = Dissociation constant, pKa of the compound; format: physicochemical
[21] = Reduction of CoASH in human hepatocytes derived from methylmalonic acidemia patient pretreated for 30 mins followed by 13C-isoleucine addition and measured after 1 hr by MS/MS analysis; format: functional, cell-based; conditions: hepatocyte
[22] = Drug metabolism in Sprague-Dawley rat plasma assessed as HST5040-glycine metabolite formation at 10 mg/kg administered as single dose using radiolabeled compound by LC/MS analysis; format: ADME, organism-based; conditions: in vivo
[23] = Reduction of CoASH in human hepatocytes derived from methylmalonic acidemia at 30 uM pretreated for 30 mins followed by 13C-isoleucine addition and measured after 1 hr by MS/MS analysis; format: functional, Hepatocyte; set-up: scale not given: the % may be the effect or the level left; conditions: time 90 min, 1.5 h
[24] = Apparent permeability across apical to basal side in human MDCK2-MDR1; format: ADME, Canis lupus familiaris; conditions: dog, MDCK-MDR1
[25] = Drug metabolism in Sprague-Dawley rat urine assessed as HST5040-carnitine metabolite formation at 10 mg/kg administered as single dose by LC/MS analysis; format: ADME, organism-based; conditions: in vivo
[26] = Tmax in CD1 mouse at 300 mg/kg, po; format: ADME, organism-based; conditions: in vivo
[27] = Reduction of acetyl carnitine in human hepatocytes derived from methylmalonic acidemia patient at 30 uM pretreated for 30 mins followed by 13C-isoleucine addition and measured after 1 hr by MS/MS analysis; format: functional, Hepatocyte; set-up: scale not given: the % may be the effect or the level left; conditions: time 90 min, 1.5 h
[28] = Ratio of drug level in liver to plasma in Sprague-Dawley rat at 10 mg/kg, po measured at 1 hr post dose; format: ADME, organism-based; conditions: liver (relative to plasma)

CCC(C)(C)C(=O)O [DIMEBUTIC ACID]
remaining at 4 h, 50 µM [1]: 86% | bioavailability [2]: 53.4% | Drug excretion [3]: 72% | Activity [4]: 54% | Tmax [5]: 30 min | Activity [6]: -69.4% | AUC(0-inf) [7]: 70200 ng·h/mL | half-life [8]: 35.4 min | solubility [9]: > 50 mg/mL | Drug metabolism [10]: Metabolite_Notdetected | IC50 (Cytochrome P450 2B6): > 10000 µM | remaining at 4 h, 50 µM [11]: 88% | Activity [12]: 87% | Tmax [13]: 20 min | inhibition (INH) [14]: Not Active | EC50 [15]: 0.8 µM | Activity [16]: -35.2% | Activity [17]: -74.2% | EC50 [18]: 8.3 µM | Drug metabolism [19]: Metabolite_Detected | pKa [20]: 4.4 | EC50 [21]: 14.1 µM | Drug metabolism [22]: Metabolite_Detected | Activity [23]: -22.3% | Papp A→B [24]: > 20 ×10⁻⁶ cm/s | Drug metabolism [25]: Metabolite_Detected | Tmax [26]: 30 min | Activity [27]: 44.6% | Kp at 1 h [28]: 4.6
